Experimental findings from patent US20250073249A1, “STEROID COMPOUND, AND PREPARATION METHOD THEREFOR AND USE THEREOF” (SHANGHAI INSTITUTE OF MATERIA MEDICA, CHINESE ACADEMY OF …, priority 2022, published 2025) are described below.

Numbering of substitutions follows the chain as printed.

The target of data set [1] is T1, AR (Homo sapiens, UniProt P10275, T878A).
T1 construct: endogenous in cells; host or cells: LNCaP
T1 sequence (P10275 1-920 T878A): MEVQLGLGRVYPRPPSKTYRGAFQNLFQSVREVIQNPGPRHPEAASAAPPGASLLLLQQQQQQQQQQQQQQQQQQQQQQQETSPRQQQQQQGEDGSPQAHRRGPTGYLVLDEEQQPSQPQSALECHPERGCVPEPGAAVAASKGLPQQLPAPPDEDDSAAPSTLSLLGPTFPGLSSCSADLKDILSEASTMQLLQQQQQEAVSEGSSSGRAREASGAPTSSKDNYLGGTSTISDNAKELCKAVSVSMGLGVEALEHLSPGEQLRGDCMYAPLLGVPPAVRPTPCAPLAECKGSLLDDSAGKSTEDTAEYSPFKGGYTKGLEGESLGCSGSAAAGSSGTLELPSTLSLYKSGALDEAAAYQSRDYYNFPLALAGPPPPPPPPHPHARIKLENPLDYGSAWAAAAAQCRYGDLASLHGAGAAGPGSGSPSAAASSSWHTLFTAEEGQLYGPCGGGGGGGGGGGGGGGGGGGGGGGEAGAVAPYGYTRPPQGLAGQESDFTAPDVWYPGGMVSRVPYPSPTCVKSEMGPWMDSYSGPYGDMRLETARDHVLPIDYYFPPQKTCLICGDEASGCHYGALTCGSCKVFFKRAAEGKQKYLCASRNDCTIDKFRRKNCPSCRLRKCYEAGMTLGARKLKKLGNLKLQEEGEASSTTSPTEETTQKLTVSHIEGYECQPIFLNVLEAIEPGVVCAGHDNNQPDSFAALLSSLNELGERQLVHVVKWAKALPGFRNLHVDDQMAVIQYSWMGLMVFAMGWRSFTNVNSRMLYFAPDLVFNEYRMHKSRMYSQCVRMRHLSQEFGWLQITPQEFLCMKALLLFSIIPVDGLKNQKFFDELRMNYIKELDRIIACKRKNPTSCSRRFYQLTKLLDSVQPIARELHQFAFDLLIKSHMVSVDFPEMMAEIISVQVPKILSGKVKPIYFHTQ
The data set is described as follows: In vitro AR degradation activity test in LNCaP cells (ELISA, OD450). It is filed as cell-based. To be noted: LNCaP cells, 24 hours. How it is done: The cells were then digested with trypsin and counted using an automated cell counter. The cell suspension was diluted to the desired density in growth medium. The cell suspension was then seeded into 96-well plates at 100 μL per well, and the plates were incubated at 37° C. with 5% CO2 for 24 hours. The compounds were then diluted 200-fold to the final concentration with DMSO or 3-fold to the final concentration with culture medium. 50 μL of compound solution was transferred to the 96-well plate and incubated at 37° C. for 24 hours. After 24 hours of incubation, the cell plate was washed 3 times with DPBS, 100 μL of 1× lysis buffer was added to each well, and placed on ice for 30 minutes. The supernatant was collected. The protein in the cell lysate samples was quantified and then diluted to the required concentration. 100 μL of cell lysate sample was added to the appropriate wells, sealed with tape and pressed firmly on top of the wells, and the plate was incubated at 37° C. for 2 hours. The plate contents were then discarded, and washed 4 times with 1× wash buffer, 200 μL per well each time. 100 μL of reconstituted detection antibody was then added, the plate was sealed with tape and incubated at 37° C. for 1 hour. The aspiration/wash step was then repeated, 100 μL of reconstituted HRP-Linked secondary antibody was added to each well, the plate was sealed with tape and incubated at 37° C. for 30 minutes. The aspiration/wash step was then repeated, 100 μL of substrate solution was added to each well and incubated at 37° C. for 10 minutes, and finally 100 μL of stop solution was added to each well. The plate was gently tapped to ensure thorough mixing, and the OD450 nm was recorded.
Degradation rate (%)=(OD450_max−OD450_sample)/(OD450_max−OD450_min)×100,plotted using GraphPad Prism 5 software, and IC50 is calculated using SPSS software.

Data set [2] relates to LNCaP cells. Nature of the data set: In vitro LNCaP cell proliferation inhibition test (CellTiter-Glo). The data set is classed as cell-based. To be noted: for Maximum Inhibition (%) / IC50: 6 days; for IC50: Homo sapiens, read-out: Anti-proliferative activity IC50. How it is done:
(§1) The cells were then digested with trypsin and counted using an automated cell counter to determine cell density. The cell suspension was diluted to the desired density in growth medium. Subsequently, 100 μL of the cell suspension was seeded into 96-well plates and incubated at 37° C. with 5% CO2 for 24 hours. 10 μL of drug solution (including 3-fold serial dilutions of compounds or DMSO) was added to each well, and the plates were incubated at 37° C. with 5% CO2 for 6 days. Prior to measurement, the assay plates were equilibrated to room temperature. 40 μL of CellTiter-Glo® reagent was added to each well. The plates were mixed on an orbital shaker for 2 minutes to induce cell lysis. After incubation at room temperature for 60 minutes to stabilize the luminescence signal, the plates were read on an Envision plate reader.

Data set [3] in a line: In vivo pharmacokinetics in rats after oral gavage. To be noted: male SD rats, PO 10 mg/kg; for AUC(0-inf) / AUC(0-t) / half-life / Cmax / tmax: rat, plasma; for Cmax: read-out: Cmax; for tmax: read-out: tmax. As for the experimental part: Male SD rats were randomly divided into 6 groups, 3 rats per group. The rats were fasted but not water-deprived for 12-14 h one day before dosing. The test samples were then dissolved in a solvent of 5% DMSO+30% PEG400+65% (0.5% MC) and administered by gavage at 10 mg/kg. Food was provided 4 h after dosing. Blood samples (0.10 mL) were collected via the orbital sinus at 0, 15, 30 min, 1, 2, 4, 6, 8, and 24 h, with EDTA-K2 as anticoagulant. Blood samples were placed on ice after collection and centrifuged to separate plasma within 30 minutes (centrifugation conditions: 5000 rpm, 10 minutes, 4° C.). 50.0 μL of plasma sample (taken from −80° C. freezer, thawed naturally at room temperature and vortexed for 30 seconds) was added to a 1.5 mL centrifuge tube, followed by addition of 500 μL internal standard solution (methanol (TEDIA, HPLC grade), acetonitrile (TEDIA, HPLC grade), formic acid (FA, ACROS ORGANICS, HPLC grade), water was laboratory-made ultrapure water (100.0 ng·mL−1)). The mixture was vortexed for 60 seconds and centrifuged for 3 minutes (centrifugal force 12000 rpm). 100 μL of the supernatant was transferred to a 96-well injection plate containing an equal volume of water, mixed by shaking, and analyzed by LC-MS/MS with an injection volume of 10 μL. The data acquisition and control system software was Analyst 1.5.1 software (Applied Biosystem). The chromatographic sample peaks were integrated automatically. The ratio of sample peak area to internal standard peak area was used as an indicator for regression with sample concentration.
The pharmacokinetic parameters of representative compounds of the present invention were tested in male SD rats after oral gavage administration at 10 mg/kg according to the above conventional method to examine the pharmacokinetic characteristics of the compounds of the present invention in rats.

Data set [4] has as its target T2, wild-type AR (Homo sapiens, UniProt P10275).
T2 construct: expressed in transfected cells; host or cells: HEK293
T2 sequence (P10275 1-920): T1 sequence (P10275 1-920 T878A) with A878T
The data set is described as follows: Wild-type AR antagonist activity test (luciferase reporter in HEK293 cells). To be noted: for IC50: HEK293 cells, luciferase expression, DHT 1.5 nM, 24 hours; for AR antagonist activity, times higher than that of the control enzalutamide: ratio to enzalutamide IC50. It is filed as cell-based. As for the experimental part:
HEK293 cells were cultured in DMEM containing 10% fetal bovine serum (FBS) at 37° C. with 5% CO2. The cells were then digested with trypsin and counted. A 10 μL/well transfection solution was prepared in opti-MEM containing 5 ng androgen receptor clone, 100 ng pGL4.36 vector, and 315 nL fugene. […] The diluted cell suspension was seeded into 96-well plates at 90 μL (40,000 cells/well), and the plates were incubated for 24 hours. Then, 10 μL of drug solution (including gradient diluted compounds or DMSO) was added, and the plates were incubated for 30 minutes. […] After 24 hours of incubation, 100 μL of Steady-Glo was added to each well of the plate, the plate was shaken at room temperature for 20 minutes, and read on an Envision.

In data set [5] the test system is 22RV1 prostate cancer cells. Nature of the data set: Anti-proliferative activity against resistant 22RV1 cells expressing AR-V7. It is filed as cell-based. To be noted: for Activity against tumor cells expressing AR splice variants: 22RV1 cells, in words; for IC50: Homo sapiens, 22RV1 cells expressing AR-V7 splice variant, read-out: Antiproliferative activity IC50. As for the experimental part: as §1
The experimental procedure was essentially the same as that for LNCaP cells.

`C[C@]12CC[C@H](NC(=O)c3ccncc3)CC1=CCC1C2CC[C@]2(C)C(n3ccnc3)=CCC12` (stereo partly drawn) [Compound 17, N-((3S,10R,13S)-17-(1H-imidazol-1-yl)-10,13-dimethyl-2,3,4,7,8,9,10,11,12,13,14,15-dodecahydro-1H-cyclopenta[a]phenanthren-3-yl)isonicotinamide] gave a DC50 in data set [1] of 1.98 µM. Also, in data set [2], the “Maximum Inhibition (%)” value is listed as 96.99% and the IC50 was 0.317 µM. Besides, in data set [2] (ratio to abiraterone IC50), the “Anti-proliferative activity, fold improvement compared to abiraterone” value is 8.8 fold. Moreover, in data set [3], the Kel amounted to 0.112 h⁻¹, the MRTPO was determined as 15.5 h, the AUC(0-inf) was found to be 65600 ng·h/mL and the AUC(0-t) worked out at 28800 ng·h/mL. Also, in data set [3], the half-life is 10 h, the Cmax stood at 4500 ng/mL and the tmax turned out to be 2 h.

With `Cc1cn(C2=CCC3C4CC=C5C[C@@H](NC(=O)c6ccnnc6)CC[C@]5(C)C4CC[C@]23C)cn1` (stereo partly shown) [Compound 13], in data set [4], the 50% inhibitory concentration (IC50) was found to be 0.244 µM and the “AR antagonist activity, times higher than that of the control enzalutamide” value is 1.8 times. The same compound showed a DC50 in data set [1] of 2.08 µM. Also, in data set [2], the “Maximum Inhibition (%)” value is reported as 96.97% and the IC50 is 0.466 µM. Besides, the “Anti-tumor activity and efficacy compared to enzalutamide” value in data set [2] (in words) is listed as “comparable anti-tumor activity but significantly superior anti-tumor efficacy compared to enzalutamide”.

Consider `CNC(=O)c1ccc(N2C(=S)N(c3cnc(C#N)c(C(F)(F)F)c3)C(=O)C23CCC3)cc1F` [Apalutamide, apalutamide], for which, in data set [5], the “Activity against tumor cells expressing AR splice variants” value was “no activity” and the IC50 was over 10 µM.

Consider `C[C@]12CC[C@H](NC(=O)c3ccnnc3)CC1=CCC1C2CC[C@]2(C)C(n3ccnc3)=CCC12` (stereo partly shown) [Compound 16], for which it took 2.76 µM to reach half-maximal degradation in data set [1] (DC50). Also, in data set [2], the “Maximum Inhibition (%)” value worked out at 92.41% and the IC50 stood at 0.383 µM. In data set [3], this compound returned a Kel of 0.296 h⁻¹, an MRTPO of 6.25 h, an AUC(0-inf) of 37500 ng·h/mL and an AUC(0-t) of 37400 ng·h/mL. Also, in data set [3], the half-life was 2.36 h, the Cmax was 3240 ng/mL and the tmax stood at 4 h.

In the case of `CC(O)c1cc(C(=O)N[C@@H](C)Cn2ccc(-c3ccc(C#N)c(Cl)c3)n2)[nH]n1` (stereo partly shown) [Darolutamide, darolutamide], in data set [5], the “Activity against tumor cells expressing AR splice variants” value was “no activity” and the IC50 was over 10 µM.

In data set [1], `C[C@]12CC[C@H](NC(=O)c3ccnnc3)CC1=CCC1C2CC[C@]2(C)C(c3cncnc3)=CCC12` (stereo partly shown) [Compound 10] gave a DC50 of 4.25 µM. Also, in data set [2], the “Maximum Inhibition (%)” value was 99.74% and the half-inhibitory concentration (IC50) was 0.82 µM.

As to `Cc1cn(C2=CCC3C4CC=C5C[C@@H](NC(=O)c6ccc([N+](=O)[O-])cc6)CC[C@]5(C)C4CC[C@]23C)cn1` (stereo partly drawn) [Compound 34, N-((3S,10R,13S)-17-(4-methyl-1H-imidazol-1-yl)-10,13-dimethyl-2,3,4,7,8,9,10,11,12,13,14,15-dodecahydro-1H-cyclopenta[a]phenanthren-3-yl)-4-nitrobenzamide], in data set [4], the midpoint of inhibition, the IC50, lay at 0.0706 µM and the “AR antagonist activity, times higher than that of the control enzalutamide” value amounted to 6.2 times. The compound further displayed a DC50 in data set [1] of 2.6 µM.
